Test results from publication PMC6704710, “Preclinical evaluation of 3D185, a novel potent inhibitor of FGFR1/2/3 and CSF-1R, in FGFR-dependent and macrophage-dominant cancer models” (Journal of Experimental & Clinical Cancer Research : CR, 2019).

Columns and labels:
Assay in all cases: Eurofins kinase panel
Type in all cases: biochemical
Settings in all cases: read-out: Inhibition rate (%)
SNRK(h) = biological target: T1, SNRK(h) (Homo sapiens, UniProt Q9NRH2)
T1 construct: purchased Eurofins (KinaseProfiler)
T1 sequence (Q9NRH2 1-765): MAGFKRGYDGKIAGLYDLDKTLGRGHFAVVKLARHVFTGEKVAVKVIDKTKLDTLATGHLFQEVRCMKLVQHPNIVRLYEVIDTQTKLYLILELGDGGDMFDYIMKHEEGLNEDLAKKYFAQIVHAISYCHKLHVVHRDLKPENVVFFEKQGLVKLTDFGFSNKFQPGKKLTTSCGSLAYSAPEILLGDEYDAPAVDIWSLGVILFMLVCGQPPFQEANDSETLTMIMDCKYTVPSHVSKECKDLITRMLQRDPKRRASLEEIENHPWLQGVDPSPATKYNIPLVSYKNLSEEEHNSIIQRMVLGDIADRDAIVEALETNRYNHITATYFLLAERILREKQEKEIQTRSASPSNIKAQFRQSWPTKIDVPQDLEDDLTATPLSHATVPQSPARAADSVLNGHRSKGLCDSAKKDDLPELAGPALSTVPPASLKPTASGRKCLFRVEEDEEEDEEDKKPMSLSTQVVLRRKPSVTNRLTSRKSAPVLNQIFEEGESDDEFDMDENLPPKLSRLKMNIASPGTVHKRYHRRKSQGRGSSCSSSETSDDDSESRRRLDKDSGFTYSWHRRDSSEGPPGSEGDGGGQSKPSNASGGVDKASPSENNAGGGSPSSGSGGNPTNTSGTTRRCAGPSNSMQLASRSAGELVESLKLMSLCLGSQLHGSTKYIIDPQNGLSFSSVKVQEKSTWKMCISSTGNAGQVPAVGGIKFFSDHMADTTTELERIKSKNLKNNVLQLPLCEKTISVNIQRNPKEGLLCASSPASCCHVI

JNK1α1(h) = biological target: T2, JNK1α1(h) (Homo sapiens, UniProt P45983)
T2 construct: purchased Eurofins (KinaseProfiler)
T2 sequence (P45983 1-384 isoform P45983-2): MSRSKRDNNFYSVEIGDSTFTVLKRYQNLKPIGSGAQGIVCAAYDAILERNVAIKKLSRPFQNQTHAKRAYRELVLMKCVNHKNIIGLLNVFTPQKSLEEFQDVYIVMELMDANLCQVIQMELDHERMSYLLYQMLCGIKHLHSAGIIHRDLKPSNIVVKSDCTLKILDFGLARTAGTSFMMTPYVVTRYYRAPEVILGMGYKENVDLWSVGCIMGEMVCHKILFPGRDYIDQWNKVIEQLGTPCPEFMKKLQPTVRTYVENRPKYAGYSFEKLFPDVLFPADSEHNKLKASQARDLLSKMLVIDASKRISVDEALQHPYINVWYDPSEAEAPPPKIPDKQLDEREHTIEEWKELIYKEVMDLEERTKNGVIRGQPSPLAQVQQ

IKKε(h) = biological target: T3, IKKε(h) (Homo sapiens, UniProt Q14164)
T3 construct: purchased Eurofins (KinaseProfiler)
T3 sequence (Q14164 1-716): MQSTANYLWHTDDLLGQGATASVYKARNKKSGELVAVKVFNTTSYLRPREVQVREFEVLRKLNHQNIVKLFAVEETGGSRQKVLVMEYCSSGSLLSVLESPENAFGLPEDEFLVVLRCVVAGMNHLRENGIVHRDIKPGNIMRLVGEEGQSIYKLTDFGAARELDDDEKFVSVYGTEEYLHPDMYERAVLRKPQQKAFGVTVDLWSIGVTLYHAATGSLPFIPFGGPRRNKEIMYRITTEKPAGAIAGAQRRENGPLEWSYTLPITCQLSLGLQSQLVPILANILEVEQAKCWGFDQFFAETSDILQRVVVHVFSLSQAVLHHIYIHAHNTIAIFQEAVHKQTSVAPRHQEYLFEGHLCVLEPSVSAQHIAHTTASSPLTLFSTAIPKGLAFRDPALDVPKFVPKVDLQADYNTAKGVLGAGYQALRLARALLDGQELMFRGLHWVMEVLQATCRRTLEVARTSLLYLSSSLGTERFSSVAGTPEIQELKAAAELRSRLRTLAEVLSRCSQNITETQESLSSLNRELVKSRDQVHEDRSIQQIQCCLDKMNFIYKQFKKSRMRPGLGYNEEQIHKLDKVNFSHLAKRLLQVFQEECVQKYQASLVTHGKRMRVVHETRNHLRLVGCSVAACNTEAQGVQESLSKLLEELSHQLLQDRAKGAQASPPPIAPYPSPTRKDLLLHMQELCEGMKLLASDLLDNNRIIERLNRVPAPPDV

cSRC(h) = biological target: T4, cSRC(h) (Homo sapiens, UniProt P12931)
T4 construct: purchased Eurofins (KinaseProfiler)
T4 sequence (P12931 whole entry): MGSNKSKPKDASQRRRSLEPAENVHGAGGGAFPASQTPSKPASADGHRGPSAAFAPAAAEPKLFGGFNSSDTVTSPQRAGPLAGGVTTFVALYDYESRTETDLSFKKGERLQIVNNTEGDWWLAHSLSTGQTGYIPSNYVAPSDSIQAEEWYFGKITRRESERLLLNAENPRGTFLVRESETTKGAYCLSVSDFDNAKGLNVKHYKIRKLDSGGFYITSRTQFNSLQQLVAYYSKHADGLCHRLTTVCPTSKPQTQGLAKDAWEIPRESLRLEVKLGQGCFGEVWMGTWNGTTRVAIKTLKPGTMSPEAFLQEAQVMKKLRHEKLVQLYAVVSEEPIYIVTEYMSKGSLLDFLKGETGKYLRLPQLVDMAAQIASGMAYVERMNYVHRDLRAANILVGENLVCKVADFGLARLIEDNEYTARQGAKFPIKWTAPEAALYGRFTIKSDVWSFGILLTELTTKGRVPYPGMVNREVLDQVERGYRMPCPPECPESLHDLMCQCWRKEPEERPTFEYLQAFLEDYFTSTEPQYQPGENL

MST4(h) = biological target: T5, MST4(h) (Homo sapiens, UniProt Q9P289)
T5 construct: purchased Eurofins (KinaseProfiler)
T5 sequence (Q9P289 whole entry): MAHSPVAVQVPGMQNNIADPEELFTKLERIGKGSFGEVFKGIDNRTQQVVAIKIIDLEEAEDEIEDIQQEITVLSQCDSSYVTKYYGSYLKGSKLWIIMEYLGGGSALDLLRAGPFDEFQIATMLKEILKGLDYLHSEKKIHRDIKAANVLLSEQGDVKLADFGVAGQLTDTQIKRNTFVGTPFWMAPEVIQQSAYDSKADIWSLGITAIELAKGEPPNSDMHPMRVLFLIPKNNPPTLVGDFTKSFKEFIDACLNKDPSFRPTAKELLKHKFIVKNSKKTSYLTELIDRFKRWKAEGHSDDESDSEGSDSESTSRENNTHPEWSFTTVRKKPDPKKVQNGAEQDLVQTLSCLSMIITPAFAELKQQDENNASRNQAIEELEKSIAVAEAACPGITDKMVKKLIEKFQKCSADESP

PKCη(h) = biological target: T6, PKCη(h) (Homo sapiens, UniProt P24723)
T6 construct: purchased Eurofins (KinaseProfiler)
T6 sequence (P24723 whole entry): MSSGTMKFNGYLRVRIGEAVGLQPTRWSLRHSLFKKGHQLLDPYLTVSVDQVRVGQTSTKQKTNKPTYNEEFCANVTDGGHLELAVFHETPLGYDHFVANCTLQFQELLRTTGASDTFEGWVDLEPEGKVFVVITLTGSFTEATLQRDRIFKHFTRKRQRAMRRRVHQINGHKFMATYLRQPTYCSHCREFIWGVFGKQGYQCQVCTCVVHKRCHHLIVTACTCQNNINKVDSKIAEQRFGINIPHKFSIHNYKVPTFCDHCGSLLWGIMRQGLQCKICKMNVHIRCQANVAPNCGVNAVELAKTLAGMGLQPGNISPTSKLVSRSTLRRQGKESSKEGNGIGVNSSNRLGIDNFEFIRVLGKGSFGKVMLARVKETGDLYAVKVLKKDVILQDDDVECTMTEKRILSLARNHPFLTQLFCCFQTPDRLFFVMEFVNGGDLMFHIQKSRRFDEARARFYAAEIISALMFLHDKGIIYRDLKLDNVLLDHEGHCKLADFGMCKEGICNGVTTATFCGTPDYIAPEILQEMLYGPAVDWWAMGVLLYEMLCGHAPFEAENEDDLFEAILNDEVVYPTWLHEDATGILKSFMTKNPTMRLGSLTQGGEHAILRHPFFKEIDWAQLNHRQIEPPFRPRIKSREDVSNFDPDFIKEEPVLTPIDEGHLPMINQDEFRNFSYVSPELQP

HIPK4(h) = biological target: T7, HIPK4(h) (Homo sapiens, UniProt Q8NE63)
T7 construct: purchased Eurofins (KinaseProfiler)
T7 sequence (Q8NE63 1-616): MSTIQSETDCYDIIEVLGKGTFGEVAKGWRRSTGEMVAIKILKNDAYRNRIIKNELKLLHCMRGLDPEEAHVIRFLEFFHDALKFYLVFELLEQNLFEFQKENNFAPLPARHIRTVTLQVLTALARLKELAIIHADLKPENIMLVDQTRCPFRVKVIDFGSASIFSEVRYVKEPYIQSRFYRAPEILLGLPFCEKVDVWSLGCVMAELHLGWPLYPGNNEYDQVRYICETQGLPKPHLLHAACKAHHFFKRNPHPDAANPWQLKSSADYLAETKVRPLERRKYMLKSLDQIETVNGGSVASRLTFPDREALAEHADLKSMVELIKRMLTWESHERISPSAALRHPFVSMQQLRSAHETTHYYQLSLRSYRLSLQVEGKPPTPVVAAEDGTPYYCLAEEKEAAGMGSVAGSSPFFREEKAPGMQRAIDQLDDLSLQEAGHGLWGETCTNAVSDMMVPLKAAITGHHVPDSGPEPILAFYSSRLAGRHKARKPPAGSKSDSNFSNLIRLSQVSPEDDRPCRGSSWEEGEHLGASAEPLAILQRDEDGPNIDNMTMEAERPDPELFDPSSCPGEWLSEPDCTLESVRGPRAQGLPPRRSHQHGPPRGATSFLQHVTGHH

CLK3(h) = biological target: T8, CLK3(h) (Homo sapiens, UniProt P49761)
T8 construct: purchased Eurofins (KinaseProfiler)
T8 sequence (P49761 whole entry): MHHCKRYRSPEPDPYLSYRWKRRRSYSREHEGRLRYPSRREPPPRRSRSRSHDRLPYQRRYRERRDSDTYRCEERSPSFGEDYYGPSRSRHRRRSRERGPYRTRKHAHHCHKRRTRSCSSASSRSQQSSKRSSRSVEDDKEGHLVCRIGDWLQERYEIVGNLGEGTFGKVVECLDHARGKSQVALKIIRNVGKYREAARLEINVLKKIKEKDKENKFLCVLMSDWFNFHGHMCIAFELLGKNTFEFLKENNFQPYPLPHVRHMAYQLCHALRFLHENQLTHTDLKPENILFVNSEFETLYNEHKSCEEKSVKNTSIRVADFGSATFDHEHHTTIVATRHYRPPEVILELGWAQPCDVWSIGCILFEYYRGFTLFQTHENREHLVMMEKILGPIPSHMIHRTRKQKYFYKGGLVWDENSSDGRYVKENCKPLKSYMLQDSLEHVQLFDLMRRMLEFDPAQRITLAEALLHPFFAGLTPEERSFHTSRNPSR

SAPK2a(T106M)(h) = biological target: T9, SAPK2a(T106M)(h) (Homo sapiens, UniProt Q16539, T106M)
T9 construct: purchased Eurofins (KinaseProfiler)
T9 sequence (Q16539 whole entry T106M): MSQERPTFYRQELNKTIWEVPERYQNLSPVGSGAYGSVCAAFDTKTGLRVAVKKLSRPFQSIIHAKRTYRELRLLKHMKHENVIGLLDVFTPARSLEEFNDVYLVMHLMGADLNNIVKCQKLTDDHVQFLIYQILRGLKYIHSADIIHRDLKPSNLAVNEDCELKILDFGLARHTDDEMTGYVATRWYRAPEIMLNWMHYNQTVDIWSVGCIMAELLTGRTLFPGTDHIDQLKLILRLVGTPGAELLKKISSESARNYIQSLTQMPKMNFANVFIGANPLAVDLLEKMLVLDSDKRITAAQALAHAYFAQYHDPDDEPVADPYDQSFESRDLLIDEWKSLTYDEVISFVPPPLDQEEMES

Which results are given for `COc1cc(OC)c(Cl)c(-c2ccc3c(NC(=O)c4ccc(N5CCNC(C)(C)C5)cc4)n[nH]c3n2)c1Cl` [3D185]?
inhibition at 0.01 µM (SNRK(h); 10 nM): -8%; inhibition at 0.1 µM (SNRK(h); 100 nM): -42%; inhibition at 1 µM (SNRK(h); 1000 nM): -44%; inhibition at 0.01 µM (JNK1α1(h); 10 nM): -3%; inhibition at 0.1 µM (JNK1α1(h); 100 nM): -4%; inhibition at 1 µM (JNK1α1(h); 1000 nM): 3%; inhibition at 0.01 µM (IKKε(h); 10 nM): -4%; inhibition at 0.1 µM (IKKε(h); 100 nM): 2%; inhibition at 1 µM (IKKε(h); 1000 nM): 5%; inhibition at 0.01 µM (cSRC(h); 10 nM): 26%; inhibition at 0.1 µM (cSRC(h); 100 nM): 53%; inhibition at 1 µM (cSRC(h); 1000 nM): 87%; inhibition at 0.01 µM (MST4(h); 10 nM): 6%; inhibition at 0.1 µM (MST4(h); 100 nM): 27%; inhibition at 1 µM (MST4(h); 1000 nM): 70%; inhibition at 0.01 µM (PKCη(h); 10 nM): -10%; inhibition at 0.1 µM (PKCη(h); 100 nM): -1%; inhibition at 1 µM (PKCη(h); 1000 nM): -9%; inhibition at 0.01 µM (HIPK4(h); 10 nM): 1%; inhibition at 0.1 µM (HIPK4(h); 100 nM): -17%; inhibition at 1 µM (HIPK4(h); 1000 nM): 16%; inhibition at 0.01 µM (CLK3(h); 10 nM): 2%; inhibition at 0.1 µM (CLK3(h); 100 nM): 9%; inhibition at 1 µM (CLK3(h); 1000 nM): 16%; inhibition at 0.01 µM (SAPK2a(T106M)(h); 10 nM): 0%; inhibition at 0.1 µM (SAPK2a(T106M)(h); 100 nM): 3%; inhibition at 1 µM (SAPK2a(T106M)(h); 1000 nM): -3%
